From patent US20090123488A1, “Compositions and methods for the treatment and prophylaxis of Alzheimer's disease” (priority 2006, published 2009)

How the values were obtained:
Aβ40 = conditions: immunized mice (Agadjanyan et al 2005); cited from earlier work
amyloid-β = conditions: mice, alum adjuvant, five boosts (Agadjanyan et al 2005); cited from earlier work
synthetic Aβ40 = assay: Effect of booster doses: mouse serums titered on synthetic Aβ40; type: in vivo; conditions: three mice
Method: After immunizations with the immunogens of Example 1, serums were assayed to determine anti-Aβ peptide titers by conventional ELISA methods. […] After thorough washing with 0.1% triton X 100 buffer, blocking with 1% bovine serum albumin (BSA) and rewashing, serum dilutions were applied and incubated at 22° C. for 1 hour. After incubation, the plates were thoroughly washed with triton-X 100 buffer again and 1/10,000 goat anti-mouse IgG-horseradish peroxidase (HRP) conjugate (or the appropriate reagent for rat or rabbit) was applied. The plates were then incubated for 1 hour at 22° C. then washed thoroughly and developed with ABTS for 45 minutes at room temperature on a shaker table. Absorbance was measured at 405 nm. Control wells containing 1/60000 normal mouse serum were measured; and the reciprocal of the […] dilution of test serums with an OD greater than the mean+8 SDs of controls was taken as the titer.
In an experiment to determine the effect of booster dosages, three mice were immunized with experimental immunogen, Pam2C-SSQYIKANSKFIGITELDAEFRHDSGYEVHHQ-amide (SEQ ID NO: 13) in a protocol of a 1 mg intraperitoneal (IP) priming dose at Day 0, followed by a 1 mg IP booster at Week 3, and a 1 mg IP second booster at Week 6. Mice were bled at weeks 5 and 8. The serums are titered on synthetic Aβ40. […]

Aβ40, sequence (P05067 672-711): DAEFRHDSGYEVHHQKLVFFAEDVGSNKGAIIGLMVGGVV

Substance	T cell response to Aβ40 (Aβ40)	maximal titer (amyloid-β)	GMT at 5 weeks (synthetic Aβ40; 1 mg IP Day 0, boosters Week 3 and Week 6, bled week 5) [million]	GMT at 8 weeks (synthetic Aβ40; 1 mg IP Day 0, boosters Week 3 and Week 6, bled week 8) [million]
Aβ33-MAP: Aβ33 synthesized as a multiple antigenic peptide (Agadjanyan et al 2005)	demonstrable T cell response	64,000	–	–
Pam2C-SSQYIKANSKFIGITELDAEFRHDSGYEVHHQ-amide [Pam2-QYIK-AB1-15]	–	–	3	8
